Tests used:
[1] = system: C2C12 skeletal muscle cells; assay: Seahorse OCR and ECAR measurements after oligomycin; format: cell-based, mouse; details: oligomycin 1 μM; for ECAR plateau after injection of oligomycin: % pre oligomycin values
Method: OCR and ECAR measurements were performed with a Seahorse XF 24 Analyzer (Seahorse Bioscience). Cells were plated 24 hours prior to measurements at a density of 40,000 cells per well within growth medium in a 24-well plate. The cells were then allowed to adhere for 24 hours (37° C., 5% CO2). Prior to the assay, the cells were washed with freshly prepared running media consisting of Seahorse XF Assay medium (Seahorse Bioscience, North America, USA), 10 mM glucose and 1 mM sodium pyruvate. The pH of the medium was adjusted to 7.4 with 1 M NaOH. The cells were then equilibrated for one hour at 37° C. without CO2. The compounds were injected during the assay; OCR and ECAR were measured at 9 minutes measurement intervals. The solutions of oligomycin, FCCP, XN, DXN and TXN were freshly prepared in running medium. The final concentrations in the wells were: 1 μM for oligomycin, 5 μM for XN, DXN and TXN and 2, 5, 8, 25 μM for the dose response experiments with DXN. Ethanol was added to the control wells not to exceed a final concentration of 0.1%. All the compounds were tested in quadruplicate on the 24-well plate. XN is highly non-polar and FBS can be used to dissolve XN. Thus, XN, DXN and TXN were first dissolved in ethanol and the resulting solutions were diluted 100-fold in running medium containing 1% of FBS. After a further 10-fold dilution into the media in wells, only 0.1% of FBS was present during OCR measurements. […] The concentration of oligomycin and the cell density used were selected based on preliminary experiments.
Seahorse data were analyzed in SAS 9.2 (SAS Institute Inc., Cary, N.C.). To show a consistent baseline, OCR values (in pmol/min/mg protein) and ECAR values (in mpH/min/mg protein) for each value were divided prior to statistical analysis by the average of the four pre oligomycin treatment values (0, 8, 17, and 25 minutes) for the corresponding well and are shown as % pre oligomycin values. The original scale for OCR and for ECAR values was utilized for the OCR/ECAR ratio (in pMol/mpH). To account for repeated measures within wells over time, a repeated-measures-in-time design using ANOVA procedures in PROC MIXED was used. Fixed effects in the model were treatment (control, 2 μM DXN, 5 μM XN, 5 μM DXN, and 5 μM TXN for the compound study and control, 2, 5, 8, and 25 μM DXN for the DXN dosage study), time (0, 8, 17, 25, 34, 43, 52, 60, 69, 78, 86, and 95 minutes), and their interaction. The random effect was the experiment (5 experiments for the compound study and 3 experiments for the DXN dosage study). To account for repeated measures within wells over time, a first order homogeneous variance-covariance matrix [AR(1)] was fitted for each well. Using the ESTIMATE statement, a priori contrasts were constructed by comparing the changes in compound treated cells from the last two time points prior to compound treatment (average 52 and 60 minutes) to the changes in control cells during the same time period. This was done for each compound and dosage for 69, 78, 86, and 95 minutes separately and for all four time points combined. […] A P-value of 0.05 was considered statistically significant and is shown as star in the graphs (FIG. 5).

[2] = system: mitochondrial transmembrane potential in C2C12 cells; assay: JC-1 assay of mitochondrial transmembrane potential; format: cell-based, mouse; details: 2.5 μM
Method: Cells were plated at a density of 80,000 cells per well in black 96-well plates and incubated for 24 hours at 37° C. (5% CO2). They were then treated with fresh solutions of various concentrations of XN, DXN or TXN in growth medium. The final concentrations of XN, DXN, TXN were 1, 2, 5, 8, 25, 50 μM, all in quadruplicate wells, in the 96-well plates. After one hour of exposure to the compounds at 37° C. (5% CO2), the cells were treated with 10 μL of a JC-1 staining solution (freshly prepared by diluting 11 fold 100 μL of the JC-1 agent furnished from the assay kit). After 15 to 30 minutes of incubation (37° C., 5% CO2), the cells were washed three times with the Cell-Based Assay Buffer (prepared by dissolving three buffer tablets of the kit in 300 mL of MilliQ water). The plates were then analyzed by a fluorescent plate reader (SpectraMax Gemini XS) at 560-595 nm and 485-535 nm.
JC-1 can selectively enter into mitochondria and reversibly change color from green to red as the membrane potential increases. In healthy cells with high mitochondrial transmembrane potential, JC-1 spontaneously forms complexes known as J-aggregates with intense red fluorescence with excitation and emission at 560 nm and 595 nm, respectively. […] The ratio of fluorescence intensity of J-aggregates to fluorescence intensity of J-monomers can be used as an indicator of cell heath or mitochondrial state. […] A decrease in the values of the ratios compared to the control is indicative of an alteration in the potential across the mitochondrial membrane.

plasma membrane = details: cited from earlier work
mice = details: mouse; cited from earlier work

CC[C@H]1/C=C/C=C/C[C@@H](C)[C@H](O)[C@@](C)(O)C(=O)[C@@H](C)[C@H](O)[C@@H](C)C(=O)[C@@H](C)[C@H](O)[C@@H](C)/C=C/C(=O)O[C@@H]2[C@H](C)[C@H](CC1)O[C@]1(CC[C@H](C)[C@H](C[C@@H](C)O)O1)[C@H]2C [oligomycin, reference compound]
residual OCR after oligomycin ([1]; DXN dosage experiment): 51.4±6.3%
ECAR plateau after injection of oligomycin ([1]; DXN dosage study): 151.1±3.4%
ECAR plateau after injection of oligomycin ([1]; compound study): 160.1±5.1%

N#CC(C#N)=NNc1ccc(OC(F)(F)F)cc1 [FCCP, carbonyl cyanide-4-(trifluoromethoxy)phenylhydrazone, reference compound]
ratio value of aggregates to monomers (JC-1, percent of control) [2]: 33.0±5.6%
concentration from which the plasma membrane is depolarized (plasma membrane): above 2.5 μM

O=[N+]([O-])c1ccc(O)c([N+](=O)[O-])c1 [dinitrophenol, reference compound]
LD50 (mice): 45 mg/kg
